Measurements reported in patent publication US20150080337A1, “N-CYCLOALKYL-N-[(TRISUBSTITUTEDSILYLPHENYL)METHYLENE]-(THIO)CARBOXAMIDE DERIVATIVES” (BAYER CROPSCIENCE, priority 2012, published 2015).

What was measured:
Septoria tritici = test: In vivo preventive test on Septoria tritici (wheat); conditions: 500 ppm of active ingredient; wheat plants sprayed 24 hours before contamination; grading 24 days after contamination vs control plants
Description: (§1) The active ingredients tested are prepared by homogenization in a mixture of acetone/tween/DMSO, and then diluted with water to obtain the desired active material concentration.
(§2) Wheat plants (“Scipion” variety), sown in starter cups on a 50/50 peat soil pozzolana substrate and grown at 22° C., are treated at the 1 leaf stage (10 cm height) by spraying with the active ingredient prepared as described above. Plants, used as controls, are treated with the mixture of acetone/tween/DMSO/water not containing the active material.
After 24 hours, the plants are contaminated by spraying the leaves with an aqueous suspension of cryopreserved Septoria tritici spores (500 000 spores per mL). The contaminated wheat plants are incubated for 72 hours at 18° C. and at 100% relative humidity, and then for 21 days at 90% relative humidity.
Grading (% of efficacy) is carried out 24 days after the contamination, in comparison with the control plants.
Under these conditions, good (at least 70%) to total protection is observed at a dose of 500 ppm of active ingredient with the following compounds from table F: […]

Puccinia recondita = test: In vivo test on Puccinia recondita (brown rust); conditions: 500 ppm of active ingredient; wheat plants sprayed 24 hours before contamination; grading 12 days after contamination vs control plants
Description: as §1, §2
(§3) After 24 hours, the plants are contaminated by spraying the leaves with an aqueous suspension of Puccinia recondita spores (100 000 spores per mL). The spores are collected from an infected plant and are suspended in water containing 2.5 mL/L of Tween 80 at 10%. The contaminated wheat plants are incubated for 24 hours at 20° C. and at 100% relative humidity, and then for 10 days at 20° C. and at 70-80% relative humidity.
(§4) Grading (% of efficacy) is carried out 12 days after the contamination, in comparison with the control plants.
Under these conditions, good (at least 70%) to excellent (at least 90%) protection is observed at a dose of 500 ppm of active ingredient with the following compounds from table C: […]

Uromyces appendiculatus = test: In vivo preventive test on Uromyces appendiculatus (bean rust); conditions: 500 ppm of active ingredient; bean plants sprayed 24 hours before contamination; grading 11 days after contamination vs control plants
Description: as §1
Bean plants (“Saxa” variety), sown in starter cups on a 50/50 peat soil pozzolana substrate and grown at 24° C., are treated at the 2 leaf stage (9 cm height) by spraying with the active ingredient prepared as described above. Plants, used as controls, are treated with the mixture of acetone/tween/DMSO/water not containing the active material.
as §3, with “of Uromyces appendiculatus” for “of Puccinia recondita”, “spores (150” for “spores (100”, “from” for “from an”, “infected plants” for “infected plant”, “contaminated bean” for “contaminated wheat”
Grading (% of efficacy) is carried out 11 days after the contamination, in comparison with the control plants.
Under these conditions, good (at least 70%) to total protection is observed at a dose of 500 ppm of active ingredient with the following compounds from table G: […]

Sphaerotheca fuliginea = test: In vivo test on Sphaerotheca fuliginea (cucurbits powdery mildew); conditions: 500 ppm of active ingredient; gherkin plants sprayed 24 hours before contamination; grading 12 days after contamination vs control plants
Description: (§5) The active ingredients tested are prepared by homogenization in a mixture of acetone/tween/DMSO and then diluted with water to obtain the desired active material concentration.
Gherkin plants (“Vert petit de Paris” variety), sown in starter cups on a 50/50 peat soil-pozzolana substrate and grown at 24° C., are treated at the Z11 cotyledon stage by spraying with the active ingredient prepared as described above. Plants, used as controls, are treated with the mixture of acetone/tween/DMSO/water not containing the active material.
After 24 hours, the plants are contaminated by spraying the cotyledons with an aqueous suspension of Sphaerotheca fuliginea spores (100 000 spores per mL). The spores are collected from infected plants. The contaminated gherkin plants are incubated at about 20° C. and at 70-80% relative humidity.
as §4
Under these conditions, good (at least 70%) to total protection is observed at a dose of 500 ppm of active ingredient with the following compounds from table A: […]

[1] = log P by HPLC on reversed-phase column (C 18), EEC Directive 79/831 Annex V.A8; format: physicochemical; conditions: Table 1, compounds of formula (I); HPLC C 18, 40° C., 0.1% aqueous formic acid and acetonitrile, gradient 10% to 90% acetonitrile
Description: In table 1, the log P values were determined in accordance with EEC Directive 79/831 Annex V.A8 by HPLC (High Performance Liquid Chromatography) on a reversed-phase column (C 18), using the method described below:
Temperature: 40° C.; Mobile phases: 0.1% aqueous formic acid and acetonitrile; linear gradient from 10% acetonitrile to 90% acetonitrile.
Calibration was carried out using unbranched alkan-2-ones (comprising 3 to 16 carbon atoms) with known log P values (determination of the log P values by the retention times using linear interpolation between two successive alkanones). lambda-max-values were determined using UV-spectra from 200 nm to 400 nm and the peak values of the chromatographic signals.
In table 2, M+H (Apcl+) and log P are defined as for table 1.

Alternaria brassicae = test: In vivo preventive test on Alternaria brassicae (leaf spot on radish); conditions: 500 ppm of active ingredient; radish plants sprayed 24 hours before contamination; grading 6 days after contamination vs control plants
Description: as §1
Radish plants (“Pernod Clair” variety), sown in starter cups on a 50/50 peat soil pozzolana substrate and grown at 17° C., are treated at the cotyledon stage by spraying with the active ingredient prepared as described above. Plants, used as controls, are treated with the mixture of acetone/tween/DMSO/water not containing the active material.
After 24 hours, the plants are contaminated by spraying the cotyledons with an aqueous suspension of Alternaria brassicae spores (50 000 spores per mL). The spores are collected from a 15-day-old culture. The contaminated radish plants are incubated at 20° C. and at 100% relative humidity.
Grading (% of efficacy) is carried out 6 days after the contamination, in comparison with the control plants.
Under these conditions, good (at least 70%) to total protection is observed at a dose of 500 ppm of active ingredient with the following compounds from table D: […]

Pyrenophora teres = test: In vivo test on Pyrenophora teres (barley net blotch); conditions: 500 ppm of active ingredient; barley plants sprayed 24 hours before contamination; grading 14 days after contamination vs control plants
Description: as §1
Barley plants (“Plaisant” variety), sown in starter cups on a 50/50 peat soil pozzolana substrate and grown at 22° C., are treated at the 1 leaf stage (10 cm height) by spraying with the active ingredient prepared as described above. Plants, used as controls, are treated with the mixture of acetone/tween/DMSO/water not containing the active material.
After 24 hours, the plants are contaminated by spraying the leaves with an aqueous suspension of Pyrenophora teres spores (12 000 spores per mL). The spores are collected from a 12-day-old culture. The contaminated barley plants are incubated for 48 hours at 20° C. and at 100% relative humidity, and then for 12 days at 20° C. at 70-80% relative humidity.
Grading (% of efficacy) is carried out 14 days after the contamination, in comparison with the control plants.
Under these conditions, good (at least 70%) to excellent (at least 90%) protection is observed at a dose of 500 ppm of active ingredient with the following compounds from table B: […]

Botrytis cinerea = test: In vivo preventive test on Botrytis cinerea (grey mould); conditions: 500 ppm of active ingredient; gherkin plants sprayed 24 hours before contamination; grading 4 to 5 days after contamination vs control plants
Description: as §5
Gherkin plants (“Vert petit de Paris” variety), sown in starter cups on a 50/50 peat soil pozzolana substrate and grown at 24° C., are treated at the Z11 cotyledon stage by spraying with the active ingredient prepared as described above. Plants, used as controls, are treated with the mixture of acetone/tween/DMSO/water not containing the active material.
After 24 hours, the plants are contaminated by spraying the cotyledons with an aqueous suspension of cryopreserved Botrytis cinerea spores (50 000 spores per mL). The spores are suspended in a nutrient solution composed of 10 g/L of PDB, 50 g/L of D-Fructose, 2 g/L of NH4NO3 and 1 g/L of KH2PO4. The contaminated gherkin plants are incubated at 17° C. and at 90% relative humidity.
Grading (% of efficacy) is carried out 4 to 5 days after the contamination, in comparison with the control plants.
Under these conditions, good (at least 70%) is observed at a dose of 500 ppm of active ingredient with the following compound from table E: […]

Row | logP [1] | Compound | Efficacy (Septoria tritici) [%] | Efficacy (Puccinia recondita) [%] | Efficacy (Uromyces appendiculatus) [%] | Efficacy (Sphaerotheca fuliginea) [%] | Efficacy (Alternaria brassicae) [%] | Efficacy (Pyrenophora teres) [%] | Efficacy (Botrytis cinerea) [%]
1 | 3.09 | Cn1nc(C(F)F)c(C(=S)N(Cc2ccccc2[Si](C)(C)c2ccc(Cl)cc2)C2CC2)c1F [I.8] | 97 | 88 | 97 | 100 | 88 |  | 
2 | 5.68 | Cn1nc(C(F)F)c(C(=O)N(Cc2ccccc2[Si](C)(C)c2ccc(Oc3ccccc3)cc2)C2CC2)c1F [I.19] | 100 | 93 | 96 | 100 |  | 97 | 
3 | 5.31 | Cn1cc(C(=O)N(Cc2ccccc2[Si](C)(C)c2ccc(Oc3ccccc3)cc2)C2CC2)c(C(F)F)n1 [I.20] | 75 |  | 89 | 83 |  | 79 | 
4 | 5.19 | Cn1nc(C(F)F)c(C(=O)N(Cc2ccccc2[Si](C)(C)c2cccc3ccccc23)C2CC2)c1F [I.25] | 100 |  | 86 | 100 | 80 |  | 
5 | 5.84 | C[Si](C)(c1ccccc1CN(C(=O)c1ccsc1I)C1CC1)c1cccc2ccccc12 [I.29] |  |  |  |  |  |  | 75
6 | 4.24 | Cn1cc(C(=O)N(Cc2ccccc2[Si](C)(C)c2cccs2)C2CC2)c(C(F)F)n1 [I.31] | 96 | 75 | 96 | 100 |  |  | 
